Measured values: US20060079550A1, “Amino acid derivatives useful for the treatment of alzheimer's disease” (priority 2001, published 2006)

Target: aspartyl proteases, in particular, beta-secretase
Experiment: Ki of the compounds listed in Tables 1 and 2 (no method described)
Assay type: biochemical
Conditions: Table 1, compounds of formula Ia, W is -(CH2)n-

Row | Ki [µM] | SMILES
1 | 0.0021 | CC(C)CN([C@@H](CCCCNC(=O)OCC1c2ccccc2-c2ccccc21)C(=O)O)S(=O)(=O)c1ccc(N)cc1 [Compound No. 44, Nα-(4-aminobenzenesulfonyl)-Nα-isobutyl-Nε-(9-fluorenylmethoxycarbonyl)-L-lysine]
2 | 8.9 | O=C(N[C@@H](CCCCNS(=O)(=O)c1ccccc1)C(=O)O)OCC1c2ccccc2-c2ccccc21 [Compound No. 49, Nε-benzenesulfonyl-Nα-(9-fluorchylmethoxycarbonyl)-L-lysine]
3 | 6 | O=C(N[C@@H](CCCCNS(=O)(=O)c1ccc([N+](=O)[O-])cc1)C(=O)O)OCC1c2ccccc2-c2ccccc21 [Compound No. 50, Nε-(4-nitrobenzenesulfonyl)-Nα-(9-fluorenylmethoxycarbonyl)-L-lysine]
4 | 6.8 | Nc1ccc(S(=O)(=O)NCCCC[C@H](NC(=O)OCC2c3ccccc3-c3ccccc32)C(=O)O)cc1 [Compound No. 52, Nε-(4-aminobenzenesulfonyl)-Nα-(9-fluorenylmethoxycarbonyl)-L-lysine]
5 | 4.8 | O=C(N[C@@H](CCCCNS(=O)(=O)c1ccc(Cl)cc1)C(=O)O)OCC1c2ccccc2-c2ccccc21 [Compound No. 53, Nε-(4-chlorobenzenesulfonyl)-Nα-(9-fluorenylmethoxycarbonyl)-L-lysine]
6 | > 6.25 | O=C(N[C@@H](CCCCNS(=O)(=O)c1cc(Cl)ccc1Cl)C(=O)O)OCC1c2ccccc2-c2ccccc21 [Compound No. 54, Nε-(2,5-dichlorobenzenesulfonyl)-Nα-(9-fluorenylmethoxycarbonyl)-L-lysine]
7 | 6.5 | O=C(N[C@@H](CCCCNS(=O)(=O)c1ccc(F)cc1)C(=O)O)OCC1c2ccccc2-c2ccccc21 [Compound No. 55, Nε-(4-fluorobenzenesulfonyl)-Nα-(9-fluorenylmethoxycarbonyl)-L-lysine]
8 | 26.2 | O=C(N[C@@H](CCCNS(=O)(=O)c1ccc([N+](=O)[O-])cc1)C(=O)O)OCC1c2ccccc2-c2ccccc21 [Compound No. 62, Nδ-(4-nitrobenzenesulfonyl)-Nα-(9-fluorenylmethoxycarbonyl)-L-ornithine]
9 | 19.2 | O=C(N[C@@H](CCCCNS(=O)(=O)c1ccc(I)cc1)C(=O)O)OCC1c2ccccc2-c2ccccc21 [Compound No. 64, Nε-(4-iodobenzenesulfonyl)-Nα-(9-fluorenylmethoxycarbonyl)-L-lysine]
10 | 1.9 | O=C(NCCCC[C@H](NS(=O)(=O)c1ccc(Br)cc1)C(=O)O)OCC1c2ccccc2-c2ccccc21 [Compound No. 66, Nα-(4-bromobenzenesulfonyl)-Nε-(9-fluorenylmethoxycarbonyl)-L-lysine]
11 | 0.0043 | Cc1ccc(S(=O)(=O)N(CC(C)C)[C@@H](CCCCNC(=O)OCC2c3ccccc3-c3ccccc32)C(=O)O)cc1 [Compound No. 67, Nα-isobutyl-Nα-(4-methylbenzenesulfonyl)-Nε-(9-fluorenylmethoxycarbonyl)-L-lysine]
12 | 23.8 | Nc1ccc(S(=O)(=O)NCCC[C@H](NC(=O)OCC2c3ccccc3-c3ccccc32)C(=O)O)cc1 [Compound No. 69, Nδ-(4-aminobenzenesulfonyl)-Nα-(9-fluorenylmethoxycarbonyl)-L-ornithine]
13 | > 12.5 | O=C(NCCCC[C@H](NS(=O)(=O)c1ccccc1[N+](=O)[O-])C(=O)O)OCC1c2ccccc2-c2ccccc21 [Compound No. 70, Nα-(2-nitrobenzenesulfonyl)-Nε-(9-fluorenylmethoxycarbonyl)-L-lysine]
14 | 2.32 | O=C(NCCCC[C@H](NS(=O)(=O)c1cccc2ccccc12)C(=O)O)OCC1c2ccccc2-c2ccccc21 [Compound No. 102, Nα-(1-naphthalenesulfonyl)-Nε-(9-fluorenylmethoxycarbonyl)-L-lysine]
15 | 3.3 | O=C(NCCCC[C@H](NS(=O)(=O)c1ccc([N+](=O)[O-])cc1)C(=O)O)OCC1c2ccccc2-c2ccccc21 [Compound No. 103, Nα-(4-nitrobenzenesulfonyl)-Nε-(9-fluorenylmethoxycarbonyl)-L-lysine]
16 | 3.16 | COc1ccc(S(=O)(=O)N[C@@H](CCCCNC(=O)OCC2c3ccccc3-c3ccccc32)C(=O)O)cc1 [Compound No. 104, Nα-(4-methoxylbenzenesulfonyl)-Nε-(9-fluorenylmethoxycarbonyl)-L-lysine]
17 | 16 | Nc1ccccc1S(=O)(=O)N[C@@H](CCCCNC(=O)OCC1c2ccccc2-c2ccccc21)C(=O)O [Compound No. 105, Nα-(2-aminobenzenesulfonyl)-Nε-(9-fluorenylmethoxycarbonyl)-L-lysine]
18 | 4.49 | Nc1ccc(S(=O)(=O)N[C@@H](CCCCNC(=O)OCC2c3ccccc3-c3ccccc32)C(=O)O)cc1 [Compound No. 106, Nα-(4-aminobenzenesulfonyl)-Nε-(9-fluorenylmethoxycarbonyl)-L-lysine]
19 | 3.97 | O=C(NCCCC[C@H](NS(=O)(=O)c1ccccc1[N+](=O)[O-])C(=O)O)OCC1c2ccccc2-c2ccccc21 [Compound No. 107, Nα-(2-nitrobenzenesulfonyl)-Nε-(9-fluorenylmethoxycarbonyl)-L-lysine]

The next lines start with the compound.

Row | SMILES | Ki [µM]
20 | CC(C)CN(C(=O)c1ccccc1)[C@@H](CCCCNC(=O)OCC1c2ccccc2-c2ccccc21)C(=O)O [Compound No. 46, Nα-isobutyl-Nα-benzoyl-Nε-(9-fluorenylmethoxycarbonyl)-Llysine] | > 0.1
21 | O=C(O)[C@H](CCCNS(=O)(=O)c1ccc(Br)cc1)NS(=O)(=O)c1ccc(Br)cc1 [Compound No. 57, Nα,Nε-di-(4-bromobenzenesulfonyl)-L-ornithine] | 42.4
22 | O=C(O)[C@H](CCCN(Cc1ccc(F)cc1)S(=O)(=O)c1ccc(Br)cc1)NS(=O)(=O)c1ccc(Br)cc1 [Compound No. 59, Nα,Nδ-di-(4-bromobenzenesulfonyl)-Nδ-(4-fluorobenzyl)-L-ornithine] | > 34.9
23 | O=C(O)[C@H](CCCCN(Cc1ccc(F)cc1)S(=O)(=O)c1ccc(Br)cc1)NS(=O)(=O)c1ccc(Br)cc1 [Compound No. 60, Nα,Nε-di-(4-bromobenzenesulfonyl)-Nε-(4-fluorobenzyl)-L-lysine] | > 50
24 | O=C(N[C@@H](CCCCNS(=O)(=O)c1ccc(Br)cc1)C(=O)O)c1ccccc1 [Compound No. 65, Nα-benzoyl-Nε-(4-bromobenzenesulfonyl)-L-lysine] | > 50
25 | O=C(NCCCC[C@H](NC(=O)OCC1c2ccccc2-c2ccccc21)C(=O)O)OCC1c2ccccc2-c2ccccc21 [Compound No. 71, Nα,Nε-di-(9-fluorenylmethoxycarbonyl)-L-lysine] | 44.8
26 | O=C(NCCCC[C@H](NS(=O)(=O)c1ccc(Cl)cc1)C(=O)O)OCC1c2ccccc2-c2ccccc21 [Compound No. 72, Nα-(4-chlorobenzenesulfonyl)-Nε-(9-fluorenylmethoxycarbonyl)L-lysine] | 2.39
27 | O=C(NCCC[C@H](NC(=O)OCC1c2ccccc2-c2ccccc21)C(=O)O)OCC1c2ccccc2-c2ccccc21 [Compound No. 73, NαNδ-di-(9-fluorenylmethoxycarbonyl)-L-ornithine] | 1.3
28 | Cc1ccc(S(=O)(=O)N(CC(C)C)[C@@H](CCCCNC(=O)OCc2ccccc2)C(=O)OCc2ccccc2)cc1 [Compound No. 75, Nα-isobutyl-Nα-(4-methylbenzenesulfonyl)-Nε-benzyloxycarbonyl-L-lysine Benzyl Ester] | > 1.25
29 | CC(C)CN([C@@H](CCCCNC(=O)OCc1ccccc1)C(=O)OCc1ccccc1)S(=O)(=O)c1ccc([N+](=O)[O-])cc1 [Compound No. 78, Nα-isobutyl-Nα-(4-nitrobenzenesulfonyl)-Nε-benzyloxycarbonyl-L-lysine Benzyl Ester] | > 1.25
30 | CC(C)CN([C@@H](CCCCNC(=O)CCc1ccccc1)C(=O)O)S(=O)(=O)c1ccc([N+](=O)[O-])cc1 [Compound No. 94, Nα-isobutyl-Nα-(4-nitrobenzenesulfonyl)-Nε-dihydrocinnamoyl-L-lysine] | 0.0339
31 | CC(C)CN([C@@H](CCCCNC(=O)CCc1c[nH]c2ccccc12)C(=O)O)S(=O)(=O)c1ccc([N+](=O)[O-])cc1 [Compound No. 95, Nα-isobutyl-Nα-(4-nitrobenzenesulfonyl)-Nε-(3-indolepropionyl)-L-lysine] | 0.0334
32 | CC(C)CN([C@@H](CCCCNC(=O)C1c2ccccc2Oc2ccccc21)C(=O)O)S(=O)(=O)c1ccc([N+](=O)[O-])cc1 [Compound No. 96, Nα-isobutyl-Nα-(4-nitrobenzenesulfonyl)-Nε-(9xanthenecarbonyl)-L-lysine] | 0.0439
33 | CC(C)CN([C@@H](CCCCNC(=O)CCc1c[nH]c2ccccc12)C(=O)O)S(=O)(=O)c1ccc(N)cc1 [Compound No. 98, Nα-isobutyl-Nα-(4-aminobenzenesulfonyl)-Nε-(3-indolepropionyl)-L-lysine] | 0.0101
34 | CC(C)CN([C@@H](CCCCNC(=O)C=Cc1cccc([N+](=O)[O-])c1)C(=O)O)S(=O)(=O)c1ccc([N+](=O)[O-])cc1 [Compound No. 108, Nα-isobutyl-Nα-(4-nitrobenzenesulfonyl)-Nε-(3-nitrocinnamoyl)-L-lysine] | > 0.3
35 | CC(C)CN(C(CCCCNC(=O)C=Cc1ccccc1[N+](=O)[O-])C(=O)O)S(=O)(=O)c1ccc([N+](=O)[O-])cc1 [Compound No. 109, Nα-isobutyl-Nα-(4-nitrobeiizenesulfonyl)-Nε-(2-nitrocinnamoyl)-L-lysine] | > 0.3
36 | CC(C)CN([C@@H](CCCCNC(=O)C=Cc1ccc([N+](=O)[O-])cc1)C(=O)O)S(=O)(=O)c1ccc([N+](=O)[O-])cc1 [Compound No. 111, Nα-isobutyl-Nα-(4-nitrobenzenesulfonyl)-Nε-(4-nitrocinnamoyl)-L-lysine] | 0.0344
37 | COc1ccc(C=CC(=O)NCCCC[C@@H](C(=O)O)N(CC(C)C)S(=O)(=O)c2ccc([N+](=O)[O-])cc2)cc1 [Compound No. 113, Nα-isobutyl-Nα-(4-nitrobenzenesulfonyl)-Nε-(4-methoxycinnamoyl)-L-lysine] | > 0.3
38 | CC(C)CN([C@@H](CCCCNS(=O)(=O)Cc1ccccc1)C(=O)O)S(=O)(=O)c1ccc([N+](=O)[O-])cc1 [Compound No. 115, Nα-isobutyl-Nα-(4-nitrobenzenesulfonyl)-Nε-benzylsulfonyl-L-lysine] | > 0.3
